In US20170143712A1, “Methods of Treating Cancers, Immune and Autoimmune Diseases, and Inflammatory Diseases Based on BTK Occupancy and BTK Resynthesis Rate” (Acerta Pharma B.V., priority 2014, published 2017):

Legend:
MDA-MB-231 tumor cells = test: Osteolytic bone lesions after intratibial MDA-MB-231 tumor inoculation in nude rats; type: in vivo, rat; design: mean visual lysis score: scale not given here; mean left tibial density: unit not given here
Protocol: FIG. 40A, FIG. 40B, FIG. 40C, FIG. 40D, FIG. 40E, FIG. 40F, and FIG. 40G illustrate the bone density in hind limbs of nude rats (n=6 per group) implanted with intratibial MDA-MB231 tumor […] and treated for up to 41 days with vehicle control, zoledronate (active control) or varying doses of Formula (II). Oral gavage administration of Formula (II) was scheduled as 3 days of initial QD dosing, followed by 30 days of BID dosing at the following dose levels: 3/3, 30/30, and 180/90 mg/kg/day. An untreated group of rats, without tibial implants (n=3) represents bone density of concurrently obtained normal rat tibial images. Statistical significance was determined by two-way ANOVA-Dunnett: ns=not significant, *=P<0.05, **=P<0.01, ***=P<0.001, versus Group 1.
Rats were inoculated with MDA-MB-231 tumor cells on Day 1, baseline radiographs were taken on Day 2, and treatment with Formula (II) began on Day 8. Radiographs were taken on Days 10, 17, 24, 31, 38, and 41. Anti-osteolytic activities were determined from differences in bone density and visual lysis scores between the drug-treated and vehicle-treated groups on each observation day, and also from changes in bone density and visual lysis scores in tumor-inoculated left tibias at baseline (Day 2) compared to Days 10, 17, 24,31, 38, and 41.
Radiographs were blinded for both analyses. […] Visual osteolysis was not detected in any rat in the nave group. The 4% increase in mean bone density from baseline to study end presumably reflected normal growth in these rats.

[1] = Rat pharmacokinetics, oral gavage vs dietary administration in chow; type: in vivo
Protocol: To evaluate the effects of continuous low dose administration versus oral gavage administration of Formula (II), six male rats per group were treated with oral gavage administration of vehicle or Formula (II) at a dose of 30 mg/kg/day for 14 days. Six male rats per group were treated with dietary Formula (II) in chow at concentrations of 100 and 500 ppm; a control group (no vehicle, no chow) was also included in the study. All animals were evaluated for pharmacokinetics on Day 14, during the night cycle to accommodate the dietary groups. The spleens were collected at necroscopy and splenocytes were harvested and cryopreserved for BTK target occupancy analysis. The presence of inactivated BTK in normal splenocytes was measured using a BTK active-site specific probe in an ELISA assay. Plasma concentrations of Formula (II) were measured using liquid chromatography/mass spectroscopy; pharmacokinetic parameters were estimated using WinNonlin (Pharsight, Cetara).

[2] = test system: established type II collagen-induced arthritis (CIA) in DBA/1 mice; test: 14-day mouse established type II collagen-induced arthritis (CIA), PO QD (Example 10); type: in vivo; settings: for AUC (All Paws) - Corrected for Initial Score / Change in Body Weight (g) / Histopathology Summed Score Knees / Histopathology Summed Score Paws / Histopathology Summed Score Six-Joints / Paw Score AUC (All Paws): mean(SE); for disease-induced body weight loss (percent change from baseline) vs vehicle controls / arthritis scores measured daily vs vehicle controls: p<0.05 on the days printed
[3] = 180 QD/90 BID mg/kg (Group 5), Day 31
[4] = 180 QD/90 BID mg/kg (Group 5), Day 41
[5] = 5 mg/kg PO QD, therapeutic paws only
[6] = 25 mg/kg PO QD, therapeutic paws only

## CC#CC(=O)N1CCC[C@H]1c1nc(-c2ccc(C(=O)Nc3ccccn3)cc2)c2c(N)nccn12 [Formula (II), (S)-4-(8-amino-3-(1-(but-2-ynoyl)pyrrolidin-2-yl)imidazo[1,5-a]pyrazin-1-yl)-N-(pyridin-2-yl)benzamide]
MDA-MB-231 tumor cells; 3 or 30 mg/kg, any observation day excluding Day 24 for 30 mg/kg
  left tibial bone density compared to vehicle controls: no significant differences
MDA-MB-231 tumor cells; 180 QD/90 BID mg/kg (Group 5)
  left intratibial densities compared to control Group 1: significantly greater compared to control Group 1 on Day 31, but not Day 41
MDA-MB-231 tumor cells; 180 QD/90 BID mg/kg (Group 5), Day 2 baseline
  mean left tibial density: 201.4±0.6
MDA-MB-231 tumor cells; 180 QD/90 BID mg/kg (Group 5), Day 2 to Days 31 and 41
  decrease in mean left tibial density: 1-2%
MDA-MB-231 tumor cells; [3]
  mean left tibial density: 199.1±0.6
  mean visual lysis score: 1.2
MDA-MB-231 tumor cells; [4]
  mean left tibial density: 197.2±0.6
  mean visual lysis score: 1.5
MDA-MB-231 tumor cells; 180 QD/90 BID mg/kg (Group 5), n=6
  rats that never developed visible left tibial lesions: Two rats
[1]; dietary 100 and 500 ppm in chow, Day 14
  Cmax as fraction of the AUC0-18 value: 1/10
[1]; rat, plasma, oral gavage 30 mg/kg/day, Day 14, male rats
  Cmax: 506 ng/mL
[1]; rat, plasma, oral gavage 30 mg/kg/day, Day 14, male rats, read-out: AUC0-12
  AUC(0-t): 864 ng·h/mL
[2]; 1 mg/kg PO QD
  AUC (All Paws) - Corrected for Initial Score: 14.99(3.62)
  Change in Body Weight (g): −0.36(0.77) g
  Histopathology Summed Score Knees: 4.90(1.32)
  Histopathology Summed Score Paws: 7.95(1.54)
  Histopathology Summed Score Six-Joints: 6.93(1.22)
  Paw Score AUC (All Paws): 22.14(4.11)
  disease-induced body weight loss (percent change from baseline) vs vehicle controls: significantly inhibited toward normal
[2]; 1 mg/kg PO QD, prophylactic paws
  daily arthritis scores vs vehicle controls: significantly reduced toward normal
[2]; 1 mg/kg, compared to 1 mg/kg ibrutinib
  knee histopathology parameters: significantly improved
[2]; 5 mg/kg PO QD
  six-joint histopathology, reduction of summed scores vs vehicle controls: 86%
  total body weight loss from enrollment to study termination: significantly inhibited
  AUC (All Paws) - Corrected for Initial Score: *0.43(2.76)
  Change in Body Weight (g): *1.23(0.52) g
  Histopathology Summed Score Knees: *1.48(0.94)
  Histopathology Summed Score Paws: *2.23(0.72)
  Histopathology Summed Score Six-Joints: *1.98(0.69)
  Paw Score AUC (All Paws): *7.58(2.63)
  disease-induced body weight loss (percent change from baseline) vs vehicle controls: significantly inhibited toward normal
[2]; 5 mg/kg PO QD, all paws
  Clinical arthritis scores AUC, reduction vs vehicle controls: 82%
  Clinical arthritis scores AUC, reduction when corrected for initial enrollment score: 99%
  arthritis scores measured daily vs vehicle controls: significantly reduced toward normal
[2]; 5 mg/kg PO QD, prophylactic paws
  daily arthritis scores vs vehicle controls: significantly reduced toward normal
[2]; 5 mg/kg PO QD, prophylactic paws only
  Clinical arthritis scores AUC, reduction vs vehicle controls: 94%
[2]; 5 mg/kg PO QD, therapeutic paws
  daily arthritis scores vs vehicle controls: significantly reduced toward normal
[2]; [5]
  Clinical arthritis scores AUC, reduction vs vehicle controls: 64%
  Clinical arthritis scores AUC, reduction when corrected for initial enrollment score: 110%
[2]; 25 mg/kg PO QD
  six-joint histopathology, reduction of summed scores vs vehicle controls: 93%
  total body weight loss from enrollment to study termination: significantly inhibited
  AUC (All Paws) - Corrected for Initial Score: *−5.24(1.36)
  Change in Body Weight (g): *1.01(0.66) g
  Histopathology Summed Score Knees: *1.25(0.43)
  Histopathology Summed Score Paws: *0.94(0.40)
  Histopathology Summed Score Six-Joints: *1.04(0.36)
  Paw Score AUC (All Paws): *1.91(0.96)
  disease-induced body weight loss (percent change from baseline) vs vehicle controls: significantly inhibited toward normal
[2]; 25 mg/kg PO QD, all paws
  Clinical arthritis scores AUC, reduction vs vehicle controls: 95%
  Clinical arthritis scores AUC, reduction when corrected for initial enrollment score: 115%
  arthritis scores measured daily vs vehicle controls: significantly reduced toward normal
[2]; 25 mg/kg PO QD, prophylactic paws
  daily arthritis scores vs vehicle controls: significantly reduced toward normal
[2]; 25 mg/kg PO QD, prophylactic paws only
  Clinical arthritis scores AUC, reduction vs vehicle controls: 100%
[2]; 25 mg/kg PO QD, therapeutic paws
  daily arthritis scores vs vehicle controls: significantly reduced toward normal
[2]; [6]
  Clinical arthritis scores AUC, reduction vs vehicle controls: 89%
  Clinical arthritis scores AUC, reduction when corrected for initial enrollment score: 152%
[2]; all dose groups PO QD
  spleen weights compared to vehicle controls: not significantly affected
